Reference: patent publication US8071645B2, “Systems and methods for treating human inflammatory and proliferative diseases and wounds, with fatty acid metabolism inhibitors and/or glycolytic inhibitors” (The Regents of the University of Colorado, priority 2003, dated 2011)

Experiments:
HL60 MDR cells = assay: % death of HL60 MDR cells by flow cytometry; format: cell-based, human; details: HL60 MDR
Method: Dot plots as a function of live versus dead cells. The cells were cultured at a concentration of 0.5 to 1 million cells per ml. Cells were untreated or treated with etomoxir or 2-deoxy-D-glucose at a concentration of 2.5 mM at the indicated concentrations for either 24 or 48 hours. In additional experiments, under each of these culture conditions, the cells were cultured for 24 hours at which time point, polyclonal anti-UCP-2 was added at a 1:1000 dilution of stock provided by Alpha Diagnostics, San Antonio, Tex. Cells were harvested and analyzed by flow cytometry. Each dot on the dot plots of FIGS. 1, 3, 5, 7, 9, and 11 represents one cell. Five thousand cells were assessed for forward scatter (FS), as a function of cell size, versus side scatter (SS), as a function of cellular granularity. The upper ellipse represents live cells by these criterion and the lower ellipse in each dot plot represents the dead cells.
Statistical Analysis, Percents, and Geometric Mean Values Percents. Gating is a tool provided by Cell Quest software and allows for the analysis of a certain population of cells. Gating around both the live and dead cell populations gave a percent of the cell numbers that was in each population. After the gates were drawn, a percent value of dead cells was calculated by taking the number of dead cells divided by the number of total cells and multiplying by one hundred.
This example illustrates an embodiment of the invention, where multi-drug resistant cancer cells were exposed to compositions of the invention. Analysis of the cells was performed using flow cytometry. The flow cytometry experiments were performed as follows. The cells were harvested, counted, and resuspended as described above. For DNA staining, the cells were washed and resuspended in ice-cold PBS and fixed by the dropwise addition of 95% ethanol. The cells were then incubated for 30 minutes on ice, washed, and resuspended in PBS containing 1% formaldehyde and 0.01% Tween. The cells were incubated with 50 units of DNAse and washed with PBS containing 5% DNAse. The cells were then incubated with anti DNA Fab (166, kind gift of Dr. Susan Wallace, University of Vermont), then washed and stained with a fluorescein conjugated second step anti-mouse immunoglobulin. The cells were then washed and resuspended in PBS/3% BSA/1% formaldehyde. The cells were stained for intracellular H2O2 using 6-carboxy-2′,7′-dichlorodihydrofluorescein diacetate (DCF-DA, Molecular Probes, Eugene, Oreg.). The cells were incubated with 1 mM DCF-DA for 20 minutes, washed twice in PBS containing 5% fetal calf serum and analyzed using flow cytometry. The mitochondrial membrane potential was assessed using MitoTracker Red (CM-H2XROS, Molecular Probes, Eugene, Oreg.). The cells were resuspended in warm (37° C.) PBS containing a final concentration of 0.5 micromolar of dye. The cells were then incubated for 30 minutes, pelleted, and resuspended in prewarmed medium for analysis. The data was acquired on a Coulter Elite Epics or Excel flow cytometer (Coulter, Hialeah, Fla.) and analyzed with CellQuest software, (Becton Dickinson, San Jose, Calif.). […] Each sample population was classified for cell size (forward scatter) and complexity (side scatter), gated on a population of interest and evaluated using 40,000 cells. Each figure describing flow cytometric data represents one of at least four replicate experiments.
All cell lines in this example were cultured in RPMI 1640 culture medium. The medium was supplemented with 5% fetal bovine serum (“FBS”), 2 mM L-Glutamine, 500 units/mL pennicillin/500 micrograms/mL of streptomycin, 10 mM HEPES Buffer, 10^−5 M 2-mercaptoethanol (“2-ME”), 1 mM MEM Sodium Pyruvate, and 0.04 micrograms/mL of Gentamicin (All reagents from Gibco BRL). The cells were maintained at 37° C. in a humidified atmosphere under 5% CO2 in air using standard cell culture techniques known to those of ordinary skill in the art. […]

[1] = test system: cell-surface Fas on drug resistant L1210/DDP cells; assay: cell-surface Fas expression on L1210/DDP cells by flow cytometry; format: cell-based
Method: Flow Cytometry. Cells were harvested, counted, and resuspended at 10^6 cells/100 μl of PBS containing 2.5% fetal calf serum in preparation for flow cytometric analysis. Cells were stained for intracellular H202 using 6-carboxy-2′,7′-dichlorodihydrofluorescein diacetate (DCF-DA, Molecular Probes, Eugene, Oreg.). Briefly, cells were incubated at 37° with 1 mM DCF-DA for 20 minutes, washed twice in PBS containing 2.5% fetal calf serum and analyzed flow cytometrically. Mitochondrial membrane potential was assessed using Mitotracker Red (CM-H2XROS, Molecular Probes, Eugene, Oreg.). […] The cells were incubated at 37° for 20 minutes, washed twice in PBS containing 2.5% fetal calf serum and analyzed flow cytometrically. Data were acquired on a Coulter Elite Epics or Excel flow cytometer (Coulter, Hialeah, Fla.) and analyzed with CellQuest software, (Becton Dickinson, San Jose, Calif.). […] Each sample population was classified for cell size (forward scatter) and complexity (side scatter), gated on a population of interest and evaluated using 5,000 cells. […]
Drug sensitive L1210 cells and drug resistant L1210/DDP cells were cultured with etomoxir for 24 hours (Tx indicates treatment with etomoxir). The level of cell-surface Fas was determined using fluorochrome conjugated anti-Fas antibodies and flow cytometry. The Fas levels are measured relative to a control for staining artifacts. […]

## CCOC(=O)C1(CCCCCCOc2ccc(Cl)cc2)CO1 (stereo not shown) [etomoxir, 2-(6-(4-chlorophenoxy)-hexyl)-oxirane-2-carboxylic acid ethyl ester]
HL60 MDR cells; 24 hours, 2-deoxy-D-glucose at 2.5 mM, etomoxir as in FIG. 27
  percent of cell deaths: 11%
HL60 MDR cells; 48 hours, concentrations as in FIG. 31
  percent of cell deaths: 14%
[1]; L1210/DDP, cultured with etomoxir for 24 hours, FIG. 7
  cell surface Fas: significant increases
[1]; L1210 DDP, etomoxir with methotrexate, FIG. 8
  cell surface Fas on methotrexate-treated cells: promotes increases
